Columns and labels:
MT-4 cells = experiment: Cytotoxicity assay in MT-4 cells; assay type: cell-based; details: 5 days, Cell-Titer Glo
How it was run: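 Compounds in 3-fold serial dilution (26 nM to 530 μM, 100× concentrations in medium) incubated in quadruplicate with 2×10^3 MT-4 cells for 5 days at 37° C; viability by CellTiter-Glo luminescence. CC50 from 4-parameter fit (Top/Bottom fixed 100%/0%), mean±SD of 3 independent experiments.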

HEp-2 cells = experiment: Cytotoxicity assay in HEp-2 cells; assay type: cell-based; details: uninfected HEp-2 cells, 4 days, CellTiter Glo
How it was run: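 Uninfected HEp-2 cells added to prediluted compound, incubated 4 days, viability read by CellTiter Glo luminescence. Untreated cells set 100% and 2 uM puromycin 0% viability; CC50 fitted by non-linear regression as concentration reducing viability by 50%.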

RSV strain A2 = experiment: Anti-RSV activity, infectious cytopathic cell protection assay in HEp-2 cells; assay type: cell-based, Respiratory Syncytial Virus (RSV); details: human respiratory syncytial virus, HEp-2, 96 h
How it was run: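 Near-confluent HEp-2 cells at 50,000/ml infected with titrated RSV A2 and dispensed onto 3-fold compound dilutions, then incubated 4 days at 37° C. Protection from virus-induced cytopathic effect read as CellTiter-Glo luminescence, normalized to 0% and 100% inhibition controls; EC50 by non-linear regression.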

## CC(C)(C)C(=O)SCCOP(=O)(OCCSC(=O)C(C)(C)C)OC[C@@]1(C#N)O[C@@H](c2ccc3c(N)ncnn23)[C@H](O)[C@@H]1O [Example 10, S,S′-2,2′-((((2R,3S,4R,5S)-5-(4-aminopyrrolo[1,2-f][1,2,4]triazin-7-yl)-2-cyano-3,4-dihydroxytetrahydrofuran-2-yl)methoxy)phosphoryl)bis(oxy)bis(ethane-2,1-diyl)bis(2,2-dimethylpropanethioate)]
MT-4 cells
  CC50: 7.3 µM
HEp-2 cells
  CC50: 39 µM
RSV strain A2
  EC50: 1 µM
